Entries after “also recorded” stand apart in the source; their conditions may differ.
Key:
[1] = test system: human progenitor cells; assay: Proteoglycan synthesis in micromass cultures, 5 days; assay type: cell-based; settings: 5 day micromass; for proteoglycan synthesis / chondrogenic differentiation: dextran polysulfate 1-20 micrograms/mL, FIG. 19B; for proteoglycan synthesis (35SO4 incorporation into PGs): hyaluronan in place of PPS, FIG. 19A
Source text: FIG. 17. Bar graphs showing the concentration dependent effects of PPS on proteoglycan synthesis by human progenitor cells in micromass cultures for 5 days. Data is presented as 35S-GAG radioactivity and as a percentage of control taken as 100%. * P<0.05 relative to control.
FIG. 19. Bar graphs showing the concentration dependent effects of (A) Hyaluronan (Supartz™) and (B) Dextran Polysulfate on proteoglycan synthesis by human progenitor cells in micromass cultures for 5 days. Data is presented as ^35S-GAG radioactivity and as a percentage of control, taken as 100% or as DPM/ug DNA. * P<0.05 relative to control.
The technique used was based on that described by (Denker A E, Haas A R, Nicoll S B and Tuan R S. Chondrogenic differentiation of murine C3H10T1/2 multipotential progenitor cells: I. Stimulation by bone morphogenetic protein-2 in high density micromass cultures. Differentiation (1999); 64: 67-76). Briefly murine Progenitor cells (cell lines C3H10T1/2 or ATDC5) purchased from RIKEN Cell Bank (Tsukuba, Japan) or human immunoselected Stro-1+ Progenitor cells (Mesoblast Ltd, Melbourne, Australia) Ten microlitres (10 μl) of a suspension of the progenitor cells (1×10^7 cells/ml in Ham's F12 medium+10% FBS) were applied to individual wells of a 24-well plates. After incubatation at 37° C. in a humidified atmosphere of 5% CO2/95% air for 2-3 hours, 900 μl of Ham's F12 medium (10% FBS) and 100 μl of PPS solution in the same medium were added slowly into the wells to afford final concentrations of PPS in each of 0, 0.1, 0.5, 1.0, 2.5, 5.0, 10.0, 20.0 μg/ml alone or in combination with rhNC4 (0, 0.1, 0.5, 1.0, 2.5, 5.0, 10.0, 25.0 μg/ml). Each drug concentration was repeated in triplicate. The cells were maintained in culture for up to 10 days. The medium with/without drugs was changed every 3 days but 24 hours before termination of the experiment 80 μl of 50 μCi/ml ^35S-H2SO4 was added to achieve a final ^35SO4 concentration of 5 μCi/ml. The following day, the cells in one of the plates were trypsinized with 150 μl/well of 2.5% trypsin and separated from the medium by centrifugation at 800 g for 10 minutes, washed with 500 μl of 1×PBS and stored in liquid nitrogen for RNA and/or DNA extraction and analysis. Media and supernatants were combined in one tube for each concentration of PPS used. To the tubes was added, 200 μl of 5× Papain solution [2.5 mg/ml Papain, 7.9 mg/ml L-Cysteine in Papain buffer (0.1 M NaAC, 5 mM EDTA, pH6.0)] and the solution incubated at 65° C. for 2 hours. After papain digestion, Four aliquots of 200 μl of digested solution were transferred to a 96-well plate (200 μl/well). The ^35S-GAG released by the digestion step were separated from the free ^35SO4 by adding 20 μl 5% CPC and 10 μl 1 mg/ml CSA with gentle shaking at 300 rpm RT for 20-30 min to precipitate the ^35S-GAG-CPC complexes. The precipitates were collected by filtered through glass fibre filters using a cell harvester. The filters were then air-dried and discs punched to scintillation vials. 3 ml/vial scintillation cocktail liquid was added and vortexed for 30-45 sec. The radioactivity of ^35S—SO4 incorporated the ^35S-GAG-CPC complexes was measured by scintillation counting.
Data is presented as 35S-GAG radioactivity and as a percentage of control taken as 100%. * P<0.05 relative to control.
Similar experiments were undertaken using Hyaluronic acid (SuperArtz (SKK, Tokyo, Japan)) and Dextran polysulfate (MW=5000) (Sigma, Sydney, Australia) in place of PPS. […] Data is presented as 35S-GAG radioactivity and as a percentage of control taken as 100% or as DPM/ug DNA. * P<0.05 relative to control.

[2] = test system: Murine ATDC5 cell line; assay: Proteoglycan biosynthesis (35S-GAG) in pellet cultures; assay type: cell-based; settings: FIG. 14; for chondrogenic effect / proteoglycan synthesis: Heparin 1.25-20 ug/mL, 6 day pellet culture
Source text: FIG. 12. A bar graph of the concentration dependent effects of Pentosan Polysulfate (PPS), on the biosynthesis of Proteoglycans (PGs) as determined by the incorporation of radioactively labelled sulfate into the sulfated glycosaminoglycans (^35S-GAG) of PGs in 6 day pellet cultures of murine progenitor cells (ADTC-5). *=p<0.05 relative to control.
FIG. 22. A bar graph of the concentration dependent effects of rhNC4 (batch PBA-1202P) expressed by K. lactis, in the absence (maintenance media, MM) and presence of insulin (10 micrograms/mL) (differentiation media, DM), on the biosynthesis of Proteoglycans PGs) in pellet cultures of ATDC5 cells. Data is shown as the % change relative to controls taken to be 100%.
Murine Progenitor cells (cell lines C3H10T1/2 or ATDC5) purchased from RIKEN Cell Bank (Tsukuba, Japan) or human immunoselected Stro-1+ Progenitor cells (Mesoblast Ltd, Melbourne, Australia) were seeded in 2 ml screw-capped sterile centrifuge tubes and the total volume made-up to 1 ml with DMEM-High glucose medium containing 10% FBS. Progenitor cells were then centrifuged at 500 g for 10 min in a swing-out rotor at room temperature. The screw caps were loosened and the tubes placed in an incubator at 37° C., in a 5% CO2/95% air moist atmosphere. The pellets generally formed within 24 hours. Medium was changed daily in the first two days, then once every 2-3 days thereafter. On day 5 the medium was removed and to each tube was added 1 ml with DMEM-High glucose medium containing 10% FBS, 5.0 μCi/ml ^35S-H2SO4 and various concentrations of PPS (0, 0.1, 0.5, 1.0, 2.5, 5.0, 10.0, 20.0, μg/ml) (FIG. 12-15) or rhNC4 (0, 0.1, 0.5, 1.0, 2.0 μg/ml) (FIG. 22). Triplicate cultures were used for all concentration of drugs. The screw caps were loosened and the tubes placed in an incubator at 37° C., in a 5% CO2/95% moist air atmosphere […]. On day 6, 200 μl of stock papain solution [2.5 mg/ml papain, 7.9 mg/ml L-Cystein in papain buffer (0.1 M NaAC, 5 mM EDTA, pH6.0)] was added to each tube. The tubes were tightly capped and incubated at 65° C. for 2 hours. After papain digestion, 4 replicates of 200 μl of papain digested solution were separately transferred to a 96-well micro-titre plate (200 μl/well). The remaining solution was used for the DNA fluorometric assays which were undertaken in triplicate as described above. Biosynthesis of ^35S-GAGs was determined as described for the monolayer cultures and the results expressed as ^35-S-GAGs/μg DNA.
Data is shown as the % of controls taken to be 100%.

[3] = test system: Primary human progenitor cells; assay: Progenitor cell proliferation, WST-1 assay; assay type: cell-based; settings: HA alone; day 3 and day 5 cultures; FIG. 20
Protocol: (§1) FIG. 4. The Effects of Pentosan Polysulfate (PPS) on Human Progenitor cell Proliferation. Primary human progenitor cells were cultured in 24 well plates in growth media supplemented with PPS at the indicated concentrations. At various time intervals (day 1, 3, 6), the growth media was removed and replaced with phenol red free media containing the tetrazolium salt WST-1 for 2 hours at 37° C./5% CO2. WST-1 is cleaved by mitochondrial dehydrogenase in viable cells to produce a formazan dye that can be detected using an ELISA plate reader at a wavelength of 450 nm. Absorbance at 450 nm for each time point is shown for all concentrations of PPS.
FIG. 20. […] At various time intervals (day 3 & 5), the growth media was removed and replaced with phenol red free media containing the tetrazolium salt WST-1 for 2 hours at 37° C./5% CO2. Absorbance at 450 nm for each time point is shown for all concentrations of PPS and HA.
as §1, with “Primary” for “FIG. 4. The Effects of Pentosan Polysulfate (PPS) on Human Progenitor cell Proliferation. Primary”

[4] = test system: ATDC5 cell; assay: Kinetics of ATDC5 cell growth over 13 days; assay type: cell-based, murine; settings: rhNC4 (batch PBA-1200P) 5 ug/ml or Insulin 10 ug/ml; 20,000 cells per well at Day 0; FIG. 30
Protocol: FIG. 30. A bar graph of the kinetics of ATDC5 cell growth induced by rhNC4 (batch PBA-1200P) (5 ug/ml) or Insulin (10 ug/ml) relative to control over 13 days. 20,000 cells per well were seeded at Day 0 (Start) with medium changes every 48 hrs. Insulin treated cultures reached confluence on day 6 and PBA-1200P on day 9. Control cultures also reached confluence on day 9 but in contrast to cultures containing insulin or PBA-1200P ceased to undergo replication.

Substance: Dextran polysulfate
- proteoglycan synthesis / chondrogenic differentiation [1]: downregulate or repress differentiation
- proteoglycan synthesis / chondrogenic differentiation ([1]; listed as Dextran Sulfate (DS)): inhibited PG synthesis
- proteoglycan synthesis / chondrogenic differentiation ([1]; listed as dextran sulfate): concentration dependent reduction in the production of proteoglycans

Substance: Heparin
- chondrogenic effect / proteoglycan synthesis [2]: does not exhibit a chondrogenic effect; also recorded: failed to significantly stimulate proteoglycan synthesis
- chondrogenic effect / proteoglycan synthesis ([2]; listed as heparin): suppressing chondrogenesis
- proteoglycan synthesis ([2]; Heparin 2.5 ugrams/mL, pellet culture): little activity
- proteoglycan synthesis ([2]; Heparin at higher concentrations (above 2.5 ugrams/mL)): may cause inhibition

Substance: Hyaluronan [HA]
- proteoglycan synthesis (35SO4 incorporation into PGs) [1]: appeared to increase synthesis of proteoglycans but not strongly
- proteoglycan synthesis (35SO4 incorporation into PGs) ([1]; listed as hyaluronan (HA)): low level of ^35SO4 incorporation into PGs
- progenitor cell proliferation (WST-1) [3]: absence of any significant stimulatory effect

Substance: Insulin
- day on which cultures reached confluence [4]: 6 days
